Drawing on ChEMBL document CHEMBL5579861, “Cytotoxic Peptaibols from Trichoderma guizhouense, a Fungus Isolated from an Urban Soil Sample” (J Nat Prod, 2024), this text covers IC50, EC50 and selectivity ratio for 14 compounds.

As usually defined, the pIC50 is the IC50 on a negative log10 scale, so that one unit is a factor of ten. The term EC50 denotes the concentration that produces a half-maximal response. As a reminder, the pEC50 is −log10 of the EC50, conventionally taken in molar units.

pEC50, pIC50: −log10 of the molar value. Non-standard residues stand in square brackets, D forms with d. Residues, ends and D or L forms follow the SMILES beside them. *: point of attachment. Leu(ol) = CC(C)C[C@H](N)CO; dIva = CC[C@@](C)(N)C(=O)O; Valol = CC(C)[C@@H](CO)N*; Aib = CC(C)(N)C(=O)O A value given as a limit tells only on which side of the number the result lay.

One data set deals with MDA-MB-231. Description: Cytotoxicity against human MDA-MB-231 cells assessed as reduction in cell viability after 24 hrs by MTT assay. The settings on record: MDA-MB-231, 24 h. The format is functional, cell-based. For orientation: Tetrazolium assays rely on reduction of a dye to a coloured formazan, in cell work by metabolically active cells.
In a further data set the test system is DU-145. Description: Cytotoxicity against human DU-145 cells assessed as reduction in cell viability after 24 hrs by MTT assay. Format: functional, cell-based. The settings on record: DU-145, 24 h.
The next data set deals with SK-HEP1. In words: Cytotoxicity against human SK-HEP1 cells assessed as reduction in cell viability after 24 hrs by MTT assay. The format is functional, cell-based. The settings on record: SK-HEP1, 24 h.
The subject of another data set is SK-OV-3. Description: Cytotoxicity against human SK-OV-3 cells assessed as reduction in cell viability after 24 hrs by MTT assay. Format: functional, cell-based. Particulars: SK-OV-3, 24 h.
The test system of the next data set is HCT-116. Description: Cytotoxicity against human HCT-116 cells assessed as reduction in cell viability after 24 hrs by MTT assay. The settings on record: HCT-116, 24 h. The format is functional, cell-based.
Data set [1] is described as follows: Cytotoxicity against human HepG2 cells assessed as reduction in cell viability after 48 hrs by MTS assay. The format is toxicity, cell-based.
Data set [2] in a line: Selectivity index, ratio of EC50 for cytotoxicity against human HepG2 cells to EC50 for antimalarial activity against Plasmodium falciparum Dd2. Format: toxicity, cell-based. Particulars: read-out: Ratio EC50.
Another data set has as its system Plasmodium falciparum. In words: Antimalarial activity against Plasmodium falciparum Dd2 assessed as reduction in parasite growth incubated for 72 hrs by SYBR Green I staining based assay. Format: functional, organism-based. Particulars: Dd2, 72 h.

On to `CC[C@@](C)(NC(C)=O)C(=O)N[C@@H](CCC(N)=O)C(=O)N[C@@H](CC(C)C)C(=O)NC(C)(C)C(=O)N1CCC[C@H]1C(=O)N[C@@H](C)C(=O)N[C@H](C(=O)NC(C)(C)C(=O)N1CCC[C@H]1C(=O)N[C@@H](CC(C)C)C(=O)N[C@@H](CC(C)C)C(=O)NC(C)(C)C(=O)N1CCC[C@H]1C(=O)N[C@H](CO)CC(C)C)C(C)C`, for which the negative logarithm of the IC50 (pIC50) is 4.85 in the data set on MDA-MB-231; 4.60 with DU-145; 4.72 in the data set with SK-HEP1; 4.82 in the data set on SK-OV-3; 4.85 in the data set with HCT-116.
`CC[C@@](C)(NC(=O)[C@H](C)NC(=O)[C@H](CO)NC(=O)C(C)(C)NC(C)=O)C(=O)N[C@](C)(CC)C(=O)N[C@@H](CCC(N)=O)C(=O)N[C@](C)(CC)C(=O)N[C@@H](CC(C)C)C(=O)NC(C)(C)C(=O)N[C@@H](C)C(=O)NC(C)(C)C(=O)NC(C)(C)C(=O)N1CCC[C@H]1C(=O)N[C@@H](CC(C)C)C(=O)NC(C)(C)C(=O)NC(C)(C)C(=O)N[C@@H](CCC(N)=O)C(=O)N[C@H](CO)C(C)C`: the pIC50 in the data set with MDA-MB-231 was 6.17; in the data set with DU-145, 5.85; in the data set on SK-HEP1, 6.04; in the data set on SK-OV-3, 6.04; in the data set with HCT-116, 6.15.
`CC[C@@](C)(NC(C)=O)C(=O)N[C@@H](CCC(N)=O)C(=O)N[C@@H](CC(C)C)C(=O)NC(C)(C)C(=O)N1CCC[C@H]1C(=O)N[C@@H](C)C(=O)N[C@H](C(=O)NC(C)(C)C(=O)N1CCC[C@H]1C(=O)N[C@](C)(CC)C(=O)N[C@@H](CC(C)C)C(=O)NC(C)(C)C(=O)N1CCC[C@H]1C(=O)N[C@H](CO)CC(C)C)C(C)C`: the pIC50 with MDA-MB-231 is 5.23; in the data set with DU-145 it was 5.04; in the data set on SK-HEP1 it was 5.37; with SK-OV-3 it was 5.37; with HCT-116, 5.57.
`CC[C@@](C)(NC(=O)[C@H](C)NC(=O)[C@H](C)NC(=O)C(C)(C)NC(C)=O)C(=O)N[C@](C)(CC)C(=O)N[C@@H](CCC(N)=O)C(=O)N[C@](C)(CC)C(=O)N[C@@H](CC(C)C)C(=O)NC(C)(C)C(=O)N[C@@H](C)C(=O)NC(C)(C)C(=O)NC(C)(C)C(=O)N1CCC[C@H]1C(=O)N[C@@H](CC(C)C)C(=O)NC(C)(C)C(=O)NC(C)(C)C(=O)N[C@@H](CCC(N)=O)C(=O)N[C@H](CO)C(C)C`: the negative-log IC50 (pIC50) in the data set on MDA-MB-231 is 6.07; in the data set with DU-145 it was 5.35; in the data set on SK-HEP1 it was 6.01; in the data set on SK-OV-3, 5.54; in the data set on HCT-116, 6.08.
Take `CC[C@H](C)[C@H](NC(=O)[C@@](C)(CC)NC(=O)[C@@H]1CCCN1C(=O)C(C)(C)NC(=O)[C@@H](NC(=O)[C@H](C)NC(=O)[C@@H]1CCCN1C(=O)C(C)(C)NC(=O)[C@H](CC(C)C)NC(=O)[C@H](CCC(N)=O)NC(=O)C(C)(C)NC(C)=O)C(C)C)C(=O)NC(C)(C)C(=O)N1CCC[C@H]1C(=O)N[C@H](CO)C(C)C`: the pIC50 was 5.41 in the data set with MDA-MB-231; 5.03 in the data set with DU-145; 5.34 with SK-HEP1; 5.42 in the data set on SK-OV-3; 5.46 in the data set on HCT-116.
With `CC[C@@](C)(NC(=O)[C@H](C)NC(=O)[C@H](CO)NC(=O)C(C)(C)NC(C)=O)C(=O)N[C@](C)(CC)C(=O)N[C@@H](CCC(N)=O)C(=O)N[C@](C)(CC)C(=O)N[C@@H](CC(C)C)C(=O)NC(C)(C)C(=O)N[C@@H](C)C(=O)NC(C)(C)C(=O)NC(C)(C)C(=O)N1CCC[C@H]1C(=O)N[C@@H](CC(C)C)C(=O)NC(C)(C)C(=O)NC(C)(C)C(=O)N[C@@H](CCC(N)=O)C(=O)N[C@H](COC(C)=O)C(C)C`, the negative-log IC50 (pIC50) was 6.08 with MDA-MB-231; 5.82 in the data set on DU-145; 5.68 with SK-HEP1; 5.54 with SK-OV-3; 6.06 with HCT-116.
For `CC[C@H](C)[C@H](NC(=O)C(C)(C)NC(=O)[C@@H]1CCCN1C(=O)C(C)(C)NC(=O)[C@@H](NC(=O)[C@H](C)NC(=O)[C@@H]1CCCN1C(=O)C(C)(C)NC(=O)[C@H](CC(C)C)NC(=O)[C@H](CCC(N)=O)NC(=O)[C@@](C)(CC)NC(C)=O)C(C)C)C(=O)NC(C)(C)C(=O)N1CCC[C@H]1C(=O)N[C@H](CO)CC(C)C`, the pIC50 in the data set with MDA-MB-231 was 4.70; in the data set on DU-145, under 4.30; in the data set with SK-HEP1 it was 5.32; in the data set with SK-OV-3, under 4.30; with HCT-116, 4.80.
As to `CC[C@H](C)[C@H](NC(=O)[C@@](C)(CC)NC(=O)[C@@H]1CCCN1C(=O)C(C)(C)NC(=O)[C@@H](NC(=O)[C@H](C)NC(=O)[C@@H]1CCCN1C(=O)C(C)(C)NC(=O)[C@H](CC(C)C)NC(=O)[C@H](CCC(N)=O)NC(=O)C(C)(C)NC(C)=O)C(C)C)C(=O)NC(C)(C)C(=O)N1CCC[C@H]1C(=O)N[C@H](CO)CC(C)C`, the pIC50 with MDA-MB-231 was 5.37; with DU-145, 5.00; in the data set on SK-HEP1, 5.42; with SK-OV-3, 5.42; in the data set with HCT-116, 5.52.
In the case of `CC[C@H](C)[C@H](NC(=O)[C@@](C)(CC)NC(=O)[C@@H]1CCCN1C(=O)C(C)(C)NC(=O)[C@@H](NC(=O)[C@H](C)NC(=O)[C@@H]1CCCN1C(=O)C(C)(C)NC(=O)[C@H](CC(C)C)NC(=O)[C@H](CCC(N)=O)NC(=O)[C@@](C)(CC)NC(C)=O)C(C)C)C(=O)NC(C)(C)C(=O)N1CCC[C@H]1C(=O)N[C@H](CO)CC(C)C`, the pIC50 in the data set on MDA-MB-231 is 5.26; in the data set with DU-145, 4.70; in the data set on SK-HEP1, 5.10; with SK-OV-3, 5.04; in the data set with HCT-116, 5.32.
Consider `CC[C@H](C)[C@H](NC(=O)C(C)(C)NC(=O)[C@@H]1CCCN1C(=O)C(C)(C)NC(=O)[C@@H](NC(=O)[C@H](C)NC(=O)[C@@H]1CCCN1C(=O)C(C)(C)NC(=O)[C@H](CC(C)C)NC(=O)[C@H](CCC(N)=O)NC(=O)C(C)(C)NC(C)=O)C(C)C)C(=O)NC(C)(C)C(=O)N1CCC[C@H]1C(=O)N[C@H](CO)C(C)C` (Ac-[Aib]QL[Aib]PAV[Aib]P[Aib]I[Aib]P-Valol), for which the pIC50 in the data set on MDA-MB-231 is 5.34; in the data set with DU-145 it was 4.80; with SK-HEP1 it was 4.96; in the data set on SK-OV-3, 5.11; in the data set with HCT-116 it was 5.02.
Regarding `CC[C@H](C)[C@H](NC(=O)C(C)(C)NC(=O)[C@@H]1CCCN1C(=O)C(C)(C)NC(=O)[C@@H](NC(=O)[C@H](C)NC(=O)[C@@H]1CCCN1C(=O)C(C)(C)NC(=O)[C@H](CC(C)C)NC(=O)[C@H](CCC(N)=O)NC(=O)C(C)(C)NC(C)=O)C(C)C)C(=O)NC(C)(C)C(=O)N1CCC[C@H]1C(=O)N[C@H](CO)CC(C)C` (Ac-[Aib]QL[Aib]PAV[Aib]P[Aib]I[Aib]P[Leu(ol)]), the pIC50 with MDA-MB-231 was 4.43; in the data set on DU-145, 4.44; with SK-HEP1 it was 4.51; in the data set on SK-OV-3 it was 4.62; with HCT-116 it was 4.80.
With `CC(=O)NC(C)(C)C(=O)N[C@@H](CCC(N)=O)C(=O)N[C@@H](CC(C)C)C(=O)NC(C)(C)C(=O)N1CCC[C@H]1C(=O)N[C@@H](C)C(=O)N[C@H](C(=O)NC(C)(C)C(=O)N1CCC[C@H]1C(=O)NC(C)(C)C(=O)N[C@H](C(=O)NC(C)(C)C(=O)N1CCC[C@H]1C(=O)N[C@H](CO)CC(C)C)C(C)C)C(C)C` (Ac-[Aib]QL[Aib]PAV[Aib]P[Aib]V[Aib]P[Leu(ol)]), the pIC50 was 5.19 in the data set on MDA-MB-231; 4.96 in the data set with DU-145; 5.05 with SK-HEP1; 5.28 with SK-OV-3; 5.15 in the data set with HCT-116.
`CC[C@H](C)[C@H](NC(=O)[C@H](CC(C)C)NC(=O)[C@H](CCC(N)=O)NC(=O)[C@@](C)(CC)NC(C)=O)C(=O)NC(C)(C)C(=O)N1CCC[C@H]1C(=O)N[C@](C)(CC)C(=O)N[C@@H](CC(C)C)C(=O)NC(C)(C)C(=O)N1CCC[C@H]1C(=O)N[C@H](CO)CC(C)C` (Ac-[dIva]QLI[Aib]P[dIva]L[Aib]P[Leu(ol)]): the EC50 at 48 h in data set [1] is over 25 µM. Further, the selectivity ratio in data set [2] is over 250. Further, the pEC50 in the data set on Plasmodium falciparum was 7.00.
On to `CC(=O)O[C@@]12CO[C@@H]1C[C@H](O)[C@@]1(C)C(=O)[C@H](O)C3=C(C)[C@@H](OC(=O)[C@H](O)[C@@H](NC(=O)OC(C)(C)C)c4ccccc4)C[C@@](O)([C@@H](OC(=O)c4ccccc4)[C@H]21)C3(C)C` [DOCETAXEL ANHYDROUS], for which the pIC50 in the data set on MDA-MB-231 was 6.77; with DU-145, 7.40; with SK-HEP1, 7.52; with SK-OV-3, 7.30.
